The values below are quoted from earlier work in patent US20260216276A1, “COMPOSITIONS AND METHODS FOR MODULATING COMPLEMENT ACTIVITY” (UCB HOLDINGS, INC., priority 2019, published 2026).

Starred links: 1 amine or outer side, 2 acyl side, 3 side chain; linkers in the order of their positions; H or OH if unused. Positions of bridges follow the written chain, without caps; N, C: chain ends. Non-standard residues stand in square brackets, D forms with d. Residues, ends and D or L forms follow the SMILES beside them. Groups on a side chain read outwards from the residue. *: point of attachment. PEG24 = NCCOCCOCCOCCOCCOCCOCCOCCOCCOCCOCCOCCOCCOCCOCCOCCOCCOCCOCCOCCOCCOCCOCCOCCOCCC(=O)O; X1 = N=C(N)NCCC[C@H](N[*:1])C(=O)C[C@@H](Cc1ccccc1)C(=O)[*:2]; Trp(7-aza) = N[C@@H](Cc1c[nH]c2ncccc12)C(=O)O; γGlu = O=C(O)[C@H](CCC(=O)[*:2])N[*:1]; Palmitoyl = CCCCCCCCCCCCCCCC(=O)*; NMeD = CN[C@@H](CC(=O)O)C(=O)O; Chg = N[C@H](C(=O)O)C1CCCCC1; Tle = CC(C)(C)[C@H](N)C(=O)O

Series [1] relates to surface-bound C5b-9 or soluble membrane attack complex (sC5b-9). The following applies: unlike eculizumab; cited from earlier work.
Series [2] has as its system complement component 5 (C5). The following applies: including p.R885>H/C; cited from earlier work.

On to `CCCCCCCCCCCCCCCC(=O)N[C@@H](CCC(=O)NCCOCCOCCOCCOCCOCCOCCOCCOCCOCCOCCOCCOCCOCCOCCOCCOCCOCCOCCOCCOCCOCCOCCOCCOCCC(=O)NCCCC[C@H](NC(=O)[C@@H](NC(=O)[C@@H]1CCCN1C(=O)[C@H](Cc1ccc(O)cc1)NC(=O)[C@H](CCC(=O)[O-])NC(=O)[C@H](Cc1c[nH]c2ncccc12)NC(=O)[C@H](Cc1ccc(O)cc1)NC(=O)[C@@H](NC(=O)[C@H](CC(=O)[O-])N(C)C(=O)[C@@H]1CC(=O)NCCCC[C@H](NC(C)=O)C(=O)N[C@@H](C(C)C)C(=O)N[C@@H](CCC(=O)O)C(=O)N[C@@H](CCCNC(=N)N)C(=O)C[C@@H](Cc2ccccc2)C(=O)N1)C(C)(C)C)C1CCCCC1)C(=O)[O-])C(=O)[O-].[Na+].[Na+].[Na+].[Na+]` [zilucoplan] (Ac-KVE[X1]D[NMeD][Tle]Y[Trp(7-aza)]EYP[Chg]K([PEG24-γGlu-Palmitoyl])-OH; lactam 1-5), for which the “binding to surface-bound C5b-9 or sC5b-9” value in series [1] is “does not bind”. Besides, the “binding and inhibitory activities in the presence of clinically relevant human C5 polymorphisms” value in series [2] is on record as “not affected”.
